Legend:
Type in all cases: cell-based
Staphylococcus carnosus = test: TAPS (Trans Acting Peptide System) assay, radial diffusion read-out; set-up: key: classified as 4>3>2>1; whereas 4 is better than 1; classified as 4>3>2>1; classified as 4>3>2>1; wildtype activity corresponds to 1; settings: peptide expressed in E. coli
Description: A range of antimicrobial polypeptides, which are variants of SEQ ID NO: 1, were tested in the TAPS assay. TAPS may be used to identify new or improved genes encoding peptides that can kill or inhibit the growth of target cells (see PCT application WO 2004/033715). The TAPS assay, an acronym for Trans Acting Peptide System, is based on having a sensitive host producing a peptide followed by screening for its activity in trans against an indicator strain. The advantage of this system is based on that the antimicrobial peptide is expressed in the Gram-negative bacterium E. coli and its antimicrobial activity can be monitored on different microbes including Gram-negatives, positives or fungi. Additionally, TAPS offers the possibility to produce correctly folded AMPs containing disulfide bonds in the host cells, thereby retaining their antimicrobial activities.
The TAPS approach requires first, that expression of the peptide is under control of an inducible promoter with tight regulation, because the host cells are sensitive to the peptide when producing it. Secondly, the produced peptide has to be released to the media so that it can interact with the target organism.
The TAPS screening can be carried out either in solid or liquid media. On solid media, a plasmid library is initially introduced into E. coli host cells. […] In the next step, the filter containing the colonies is transferred to LB growth medium containing inducer (0.1% arabinose) to permit peptide synthesis. Subsequently, the target strain, for example S. carnosus, is overlaid onto the plate and allowed to grow for 12-16 hours at 37° C. Finally, visual inspection of the host cells capable of reducing the proliferation of the target cells is performed and the nucleotide sequence encoding for the antimicrobial peptide is recovered from the host cells. DNA sequence analysis of the variants is obtained to elucidate the nature of the peptide.
As mentioned above, the TAPS screening can also be performed using liquid medium. This procedure requires the use of robotics to analyze large number of clones. In this system, the host E. coli origami cells are transformed with the plasmid library and plated out on LB medium+0.2% glucose+ampicillin (200 mg/L). Independent colonies are then inoculated into 96 or 384-well plates containing 200 micro-L of TB medium+ampicillin (200 mg/L) and cultured overnight at 37° C. These cultures are then replicated robotically and grown to exponential phase until inducer (0.1% arabinose) is added to trigger peptide synthesis. The next step consists in hydrolyzing the cells such that the peptide is released to the media by hot acid hydrolysis. This treatment consists on adding 1 M sodium Phosphate buffer pH 2.3 to obtain a final pH approximately of 2.3 and incubating the cultures overnight at 80° C. Next day, a 25 micro-L aliquot of the hydrolyzed cultures is used to perform an activity test against the desired target organisms. The activity test performed was a Radial Diffusion Assay (RDA) where an aliquot of the hydrolyzed cultures was added to the agarose media inoculated with the target strain, S. carnosus. […] Measurements of the diameter of the clearing zones were performed to quantify the potency of the antimicrobial activity of the peptides.
The antimicrobial activity (against Staphylococcus carnosus) of the tested plectasin variants, which was measured using the TAPS assay, is shown in table 3. The antimicrobial activity corresponds to the clearing zone size and has been classified as 4>3>2>1; whereas 4 is better than 1, and wildtype activity corresponds to 1.

[1] = tested on: panel of 6 different strains of Staphylococcus aureus; test: Average MIC, NCCLS/CLSI guidelines using caMHB (Example 6); settings: average over 6 S. aureus strains, duplicate; MIC above 32 counted as 64; read after 18-24 hours at 37° C.
How it was run: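 MICs were determined by broth dilution per NCCLS/CLSI in caMHB against six S. aureus strains (four MSSA, two MRSA), with peptides at 0.03–32 microgram/mL, read after 18-24 h at 37° C. Each was tested in duplicate and the two results averaged; MICs above 32 micrograms/mL were counted as 64.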

[2] = tested on: Staphylococcus carnosus ATCC51365; test: Yeast screening assay: radial diffusion assay of yeast supernatants; set-up: key: An activity of 3 is better than Plectasin; An activity of 2 corresponds to the activity of Plectasin; 1 is worse than Plectasin; settings: yeast supernatant, clearing zone in radial diffusion assay
How it was run: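 Supernatants from S. cerevisiae expressing plectasin variants, grown 3 days at 30 °C in galactose medium, were applied to agarose containing 5×10^5 cfu/mL S. carnosus. Plates were incubated 3 h at 37 °C, overlaid, left overnight and MTT-stained. Clearing zones were scored as 2 = plectasin-like, 3 = better, 1 = worse.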

[3] = tested on: Staphylococcus aureus, ATCC 29213; test: MIC, NCCLS/CLSI guidelines (Example 5), strain A; settings: relative to wildtype Plectasin; average of two independent experiments
How it was run: (§1)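 Expressed, purified plectasin wild-type and variant peptides were tested for minimal inhibitory concentration under NCCLS/CLSI guidelines. Values are the mean of two independent experiments, scored relative to wild-type plectasin MIC: 0 >100%, 1 80-100%, 2 50-80%, 3 <50%.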

[4] = tested on: Staphylococcus aureus, ATCC 25923; test: MIC, NCCLS/CLSI guidelines (Example 5), strain B; settings: relative to wildtype Plectasin; average of two independent experiments
How it was run: as §1

[5] = tested on: Staphylococcus aureus, ATCC 29737; test: MIC, NCCLS/CLSI guidelines (Example 5), strain C; settings: relative to wildtype Plectasin; average of two independent experiments
How it was run: as §1

[6] = tested on: Staphylococcus aureus, MRSA ST5 (2001); test: MIC, NCCLS/CLSI guidelines (Example 5), strain D; settings: relative to wildtype Plectasin; average of two independent experiments
How it was run: (§2)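 MICs of purified plectasin peptides are measured according to NCCLS/CLSI guidance. Each value averages duplicate independent experiments and is given as a category relative to wild-type: 0 above 100%, 1 80-100%, 2 50-80%, 3 below 50%.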

[7] = tested on: Staphylococcus aureus, MRSA ST80 (2003); test: MIC, NCCLS/CLSI guidelines (Example 5), strain E; settings: relative to wildtype Plectasin; average of two independent experiments
How it was run: as §2

| Sequence | Activity (antimicrobial activity, clearing zone size) (Staphylococcus carnosus) | Average MIC [1] | Activity (antimicrobial activity relative to the activity of plectasin) [2] | Relative MIC, strain A [3] | Relative MIC, strain B [4] | Relative MIC, strain C [5] | Relative MIC, strain D [6] | Relative MIC, strain E [7] |
| --- | --- | --- | --- | --- | --- | --- | --- | --- |
| GFGCKGPWDEDDMQCHNHCKSIKGYKGGYCAKGGFVCKCY [Mutation N5K] | 2 | 12 micrograms/mL |  |  |  |  |  |  |
| GFGCNGPWDEDDKQCHNHCKSIKGYKGGYCAKGGFVCKCY [Mutation M13K] | 3 | 12 micrograms/mL |  |  |  |  |  |  |
| GFGCNGPWDEDDKQCHNHCKSIKGYRGGYCAKGGFVCKCY [M13K + K26R] | 4 | 10 micrograms/mL |  |  |  |  |  |  |
| GFGCNGPWDEDDKQCHRHCKSIKGYKGGYCAKGGFVCKCY [M13K + N17R] | 3 |  |  |  |  |  |  |  |
| GFGCNGPWDEDDKQCHRHCKSIKGYKGGYCAKGGFVCKCYR [M13K + N17R + Y40YR] | 3 | 8 micrograms/mL |  |  |  |  |  |  |
| GFGCNGPWDEDDMQCHHHCKSIKGYKGGYCAKGGFVCKCY [Mutation N17H] | 4 |  |  |  |  |  |  |  |
| GFGCNGPWDEDDMQCHNHCKFIKGYKGGYCTKGGFVCKCY [S21F + A31T] | 2 |  |  |  |  |  |  |  |
| GFGCNGPWDEDDMQCHNHCRSIKGYKGGYCAKGGFVCKCY [Mutation K20R] | 2 |  |  |  |  |  |  |  |
| GFGCNGPWDEDDMQCHRHCKSIKGYKGGYCAKGGFVCKCYR [N17R + Y40YR] | 3 |  |  |  |  |  |  |  |
| GFGCNGPWDEDDMRCHNHCKSIKGYKGGYCAKGGFICKCY [Q14R + V36I] | 4 |  |  |  |  |  |  |  |
| GFGCNGPWDEDDMRCHNHCKSIKGYKGGYCAKGGFVCKCYR [Q14R + Y40YR] | 3 |  |  |  |  |  |  |  |
| GFGCNGPWDEDDMRCHNHCKSIRGYRGGYCAKGGFVCKCY [Q14R + K23R + K26R] |  | 2 micrograms/mL | 2 | 3 (<50% of Plectasin wildtype MIC) | 3 (<50% of Plectasin wildtype MIC) | 3 (<50% of Plectasin wildtype MIC) | 3 (<50% of Plectasin wildtype MIC) | 3 (<50% of Plectasin wildtype MIC) |
| GFGCNGPWDEDDMRCHNHCRSIKGYKGGYCAKGGFVCKCY [Q14R + K20R] |  | 3 micrograms/mL | 2 | 3 (<50% of Plectasin wildtype MIC) | 3 (<50% of Plectasin wildtype MIC) | 3 (<50% of Plectasin wildtype MIC) | 3 (<50% of Plectasin wildtype MIC) | 3 (<50% of Plectasin wildtype MIC) |
| GFGCNGPWDEGDKQCHNHCKSIKGYRGGYCAKGGFVCKCY [D11G + M13K + K26R] | 3 |  |  |  |  |  |  |  |
| GFGCNGPWDEGDMQCHNHCKSIKGYKGGYCARGGFVCKCY [D11G + K32R] |  | 5 micrograms/mL | 3 | 1 (80-100% of Plectasin wildtype MIC) | 3 (<50% of Plectasin wildtype MIC) | 3 (<50% of Plectasin wildtype MIC) | 2 (50-80% of Plectasin wildtype MIC) | 3 (<50% of Plectasin wildtype MIC) |
| GFGCNGPWDENDMQCHNHCKFIKGYKGGYCAKGGFVCKCY [D11N + S21F] | 4 |  |  |  |  |  |  |  |
| GFGCNGPWDENDMQCHNHCKSIKGYKGGYCAKGGFVCKCY [Mutation D11N] |  | 6 micrograms/mL | 3 | 2 (50-80% of Plectasin wildtype MIC) | 3 (<50% of Plectasin wildtype MIC) | 2 (50-80% of Plectasin wildtype MIC) | 2 (50-80% of Plectasin wildtype MIC) | 3 (<50% of Plectasin wildtype MIC) |
| GFGCNGPWGEDDMRCHNHCKSIRGYKGGYCAKGGFVCKCY [D9G + Q14R + K23R] |  | 2 micrograms/mL | 3 | 3 (<50% of Plectasin wildtype MIC) | 3 (<50% of Plectasin wildtype MIC) | 3 (<50% of Plectasin wildtype MIC) | 3 (<50% of Plectasin wildtype MIC) | 3 (<50% of Plectasin wildtype MIC) |
| GFGCRGPWDEDDMQCHNHCKSIKGYKGGYCAKGGFVCKCY [Mutation N5R] |  | 8 micrograms/mL | 3 | 1 (80-100% of Plectasin wildtype MIC) | 2 (50-80% of Plectasin wildtype MIC) | 2 (50-80% of Plectasin wildtype MIC) | 2 (50-80% of Plectasin wildtype MIC) | 2 (50-80% of Plectasin wildtype MIC) |
| GFGCSGPWDEDDMRCHNHCKAIRGYKGGYCAKGGFVCKCY [N5S + Q14R + S21A + K23R] |  | 9 micrograms/mL | 3 | 1 (80-100% of Plectasin wildtype MIC) | 3 (<50% of Plectasin wildtype MIC) | 2 (50-80% of Plectasin wildtype MIC) | 2 (50-80% of Plectasin wildtype MIC) | 0 (>100% of Plectasin wildtype MIC) |
| GFGCYGPWDEDDMLCHNHCKSIKGYKGGYCAKGGFVCKCY [N5Y + Q14L] | 2 |  |  |  |  |  |  |  |
| GFGCYGPWDEDDMQCHNHCKSIKGYKGGYCAKGGFVCKCY [Mutation N5Y] | 2 |  |  |  |  |  |  |  |

From US20100120690A1, “Polypeptides Having Antimicrobial Activity and Polynucleotides Encoding Same” (Novozymes Adenium Biotech A/S, priority 2005, published 2010)
